The test system of the experiment is HIV. The experiment can be described thus: Assay for inhibition of HIV replication (spread assay; acute HIV infection of T-lymphoid cells). In kind it is cell-based. To be noted: Human immunodeficiency virus 1, tested up to 1 micromolar. Here is the method: Assay for Inhibition of HIV Replication
Assays for the inhibition of acute HIV infection of T-lymphoid cells were conducted in accordance with Vacca, J. P. et al., Proc. Natl. Acad. Sci. USA 1994, 91: 4096. […] The compounds of Examples 6, 8, 9, 14, 15, 21-23 and 29-35 were also tested in the spread assay up to 1 micromolar, but specific IC95 values were not obtained; i.e., the IC95 values for these compounds are greater than 1 micromolar.
Regarding `CCN(C(=O)c1nnc(C)o1)c1cccn2c(=O)c(O)c(C(=O)NCc3ccc(F)cc3)nc12` [Example 26, 9-{ethyl[(5-methyl-1,3,4-oxadiazol-2-yl)carbonyl]amino}-N-(4-fluorobenzyl)-3-hydroxy-4-oxo-4H-pyrido[1,2-a]pyrimidine-2-carboxamide], the IC95 (as a rule, the concentration at which the effect reaches the 95% level) is below 1000 nM.

The molecule `CCN(CC)CC(=O)N(CC)c1cccn2c(=O)c(O)c(C(=O)NCc3ccc(F)cc3)nc12` [Example 21, 9-[(N,N-diethylglycyl)(ethyl)amino]-N-(4-fluorobenzyl)-3-hydroxy-4-oxo-4H-pyrido[1,2-a]pyrimidine-2-carboxamide] returned an IC95 above 1000 nM.

For `CCCN(C(=O)C(=O)N(C)C)c1cccn2c(=O)c(O)c(C(=O)NCc3ccc(F)cc3)nc12` [Example 17, N-(2-{[(4-fluorobenzyl)amino]carbonyl}-3-hydroxy-4-oxo-4H-pyrido[1,2-a]pyrimidin-9-yl)-N-propyl-N′,N′-dimethylethanediamide], the IC95 was below 1000 nM.

In turn, `O=C(Nc1cccn2c(=O)c(O)c(C(=O)NCc3ccc(F)cc3)nc12)OCc1ccccc1` [Example 13, benzyl (2-{[(4-fluorobenzyl)amino]carbonyl}-3-hydroxy-4-oxo-4H-pyrido[1,2-a]pyrimidin-9-yl)carbamate] showed an IC95 below 1000 nM.

`CCNc1cccn2c(=O)c(O)c(C(=O)NCc3ccc(F)cc3)nc12` [Example 10, 9-[ethylamino]-N-(4-fluorobenzyl)-3-hydroxy-4-oxo-4H-pyrido[1,2-a]pyrimidine-2-carboxamide] gave an IC95 below 1000 nM.

Molecule `CN(C(=O)CS(C)(=O)=O)c1cccn2c(=O)c(O)c(C(=O)NCc3ccc(F)cc3)nc12` [Example 2, N-(4-fluorobenzyl)-3-hydroxy-9-{methyl[(methylsulfonyl)acetyl]amino}-4-oxo-4H-pyrido[1,2-a]pyrimidine-2-carboxamide] displayed an IC95 below 1000 nM.

On to `CN(C)c1cccn2c(=O)c(O)c(C(=O)NCc3ccc(F)cc3)nc12` [Example 9, 9-[dimethylamino]-N-(4-fluorobenzyl)-3-hydroxy-4-oxo-4H-pyrido[1,2-a]pyrimidine-2-carboxamide], for which the IC95 is above 1000 nM.

In the case of `CN(C)Cc1cccn2c(=O)c(O)c(C(=O)NCc3ccc(F)cc3)nc12` [Example 30, 9-[(dimethylamino)methyl]-N-(4-fluorobenzyl)-3-hydroxy-4-oxo-4H-pyrido[1,2-a]pyrimidine-2-carboxamide], the IC95 was above 1000 nM.

The molecule `CCN(C(=O)CN1CCN(C)CC1)c1cccn2c(=O)c(O)c(C(=O)NCc3ccc(F)cc3)nc12` [Example 23, 9-{ethyl[(4-methylpiperazin-1-yl)acetyl]amino}-N-(4-fluorobenzyl)-3-hydroxy-4-oxo-4H-pyrido[1,2-a]pyrimidine-2-carboxamide] registered an IC95 above 1000 nM.

On to `CN(C)C(=O)C(=O)N(C)c1cccn2c(=O)c(O)c(C(=O)NCc3ccc(F)cc3)nc12` [Example 11, N-(2-{[(4-fluorobenzyl)amino]carbonyl}-3-hydroxy-4-oxo-4H-pyrido[1,2-a]pyrimidin-9-yl)-N,N′,N′-trimethylethanediamide], for which the IC95 was below 1000 nM.

`CCN(C(=O)C(=O)N1CCN(C)CC1)c1cccn2c(=O)c(O)c(C(=O)NCc3ccc(F)cc3)nc12` [Example 28, 4-[[ethyl(2-{[(4-fluorobenzyl)amino]carbonyl}-3-hydroxy-4-oxo-4H-pyrido[1,2-a]pyrimidin-9-yl)amino](oxo)acetyl]-1-methylpiperazine]: the IC95 was below 1000 nM.

Molecule `O=C(NCc1cccn2c(=O)c(O)c(C(=O)NCc3ccc(F)cc3)nc12)c1ccccc1` [Example 34, 9-[(benzoylamino)methyl]-N-(4-fluorobenzyl)-3-hydroxy-4-oxo-4H-pyrido[1,2-a]pyrimidine-2-carboxamide] showed an IC95 above 1000 nM.

`O=C(NCc1ccc(F)cc1)c1nc2c(CN3CCOCC3)cccn2c(=O)c1O` [Example 32, N-(4-fluorobenzyl)-3-hydroxy-9-(morpholin-4-ylmethyl)-4-oxo-4H-pyrido[1,2-a]pyrimidine-2-carboxamide] had an IC95 above 1000 nM.

As for `CC(=O)N1CCN(Cc2cccn3c(=O)c(O)c(C(=O)NCc4ccc(F)cc4)nc23)CC1` [Example 33, 9-[(4-acetylpiperazin-1-yl)methyl]-N-(4-fluorobenzyl)-3-hydroxy-4-oxo-4H-pyrido[1,2-a]pyrimidine-2-carboxamide], the IC95 is above 1000 nM.

`CCN(C(=O)C(=O)N1CCCC1)c1cccn2c(=O)c(O)c(C(=O)NCc3ccc(F)cc3)nc12` [Example 27, 9-{ethyl[oxo(pyrrolidin-1-yl)acetyl]amino}-N-(4-fluorobenzyl)-3-hydroxy-4-oxo-4H-pyrido[1,2-a]pyrimidine-2-carboxamide] came in with an IC95 below 1000 nM.

As for `CNc1cccn2c(=O)c(O)c(C(=O)NCc3ccc(F)cc3)nc12` [Example 8, 9-[methylamino]-N-(4-fluorobenzyl)-3-hydroxy-4-oxo-4H-pyrido[1,2-a]pyrimidine-2-carboxamide], the IC95 was above 1000 nM.

In turn, `CCN(C(=O)c1ccccn1)c1cccn2c(=O)c(O)c(C(=O)NCc3ccc(F)cc3)nc12` [Example 16, 9-[ethyl(pyridin-2-ylcarbonyl)amino]-N-(4-fluorobenzyl)-3-hydroxy-4-oxo-4H-pyrido[1,2-a]pyrimidine-2-carboxamide] came in with an IC95 below 1000 nM.

`CCN(C(=O)CN1CCOCC1)c1cccn2c(=O)c(O)c(C(=O)NCc3ccc(F)cc3)nc12` [Example 22, 9-[ethyl(morpholin-4-ylacetyl)amino]-N-(4-fluorobenzyl)-3-hydroxy-4-oxo-4H-pyrido[1,2-a]pyrimidine-2-carboxamide] had a concentration for an effect of 95% (IC95) above 1000 nM.

`CN(C(=O)c1ccccc1)c1cccn2c(=O)c(O)c(C(=O)NCc3ccc(F)cc3)nc12` [Example 7, 9-[benzoyl(methyl)amino]-N-(4-fluorobenzyl)-3-hydroxy-4-oxo-4H-pyrido[1,2-a]pyrimidine-2-carboxamide] yielded an IC95 below 1000 nM.

For `CCN(C(=O)c1cscn1)c1cccn2c(=O)c(O)c(C(=O)NCc3ccc(F)cc3)nc12` [Example 24, 9-[ethyl(1,3-thiazol-4-ylcarbonyl)amino]-N-(4-fluorobenzyl)-3-hydroxy-4-oxo-4H-pyrido[1,2-a]pyrimidine-2-carboxamide], the IC95 is below 1000 nM.

`CC(C)CN(C(=O)C(=O)N(C)C)c1cccn2c(=O)c(O)c(C(=O)NCc3ccc(F)cc3)nc12` [Example 18, N-(2-{[(4-fluorobenzyl)amino]carbonyl}-3-hydroxy-4-oxo-4H-pyrido[1,2-a]pyrimidin-9-yl)-N-isobutyl-N′,N′-dimethylethanediamide]: the IC95 was below 1000 nM.

For the molecule `CON(C)Cc1cccn2c(=O)c(O)c(C(=O)NCc3ccc(F)cc3)nc12` [Example 31, N-(4-fluorobenzyl)-3-hydroxy-9-{[methoxy(methyl)amino]methyl}-4-oxo-4H-pyrido[1,2-a]pyrimidine-2-carboxamide], the IC95 was above 1000 nM.

For the molecule `CC(=O)N(C)c1cccn2c(=O)c(O)c(C(=O)NCc3ccc(F)cc3)nc12` [Example 6, 9-[acetyl(methyl)amino]-N-(4-fluorobenzyl)-3-hydroxy-4-oxo-4H-pyrido[1,2-a]pyrimidine-2-carboxamide], the IC95 is above 1000 nM.

Turning to `Cc1cccn2c(=O)c(O)c(C(=O)NCc3ccc(F)cc3)nc12` [Example 29, N-(4-fluorobenzyl)-3-hydroxy-9-methyl-4-oxo-4H-pyrido[1,2-a]pyrimidine-2-carboxamide], the IC95 is above 1000 nM.

`O=C(NCc1ccc(F)cc1)c1nc2ccc(-c3ccccc3N3CCOCC3)cn2c(=O)c1O` [Example 5] came in with an IC95 below 1000 nM.

For `O=C(NCc1ccc(F)cc1)c1nc2ccccn2c(=O)c1O` [Example 1, N-(4-Fluorobenzyl)-3-hydroxy-4-oxo-4H-pyrido[1,2-a]pyrimidine-2-carboxamide], the IC95 was below 1000 nM.

In the case of `O=C(NCc1ccc(F)cc1)c1nc2c(OCc3ccccc3)cccn2c(=O)c1O` [Example 4, N-(4-fluorobenzyl)-3-hydroxy-9-(benzyloxy)-4-oxo-4H-pyrido[1,2-a]pyrimidine-2-carboxamide], the IC95 was below 1000 nM.

In turn, `CCN(C(=O)CN(C)C)c1cccn2c(=O)c(O)c(C(=O)NCc3ccc(F)cc3)nc12` [Example 20, 9-[(N,N-dimethylglycyl)(ethyl)amino]-N-(4-fluorobenzyl)-3-hydroxy-4-oxo-4H-pyrido[1,2-a]pyrimidine-2-carboxamide] displayed an IC95 below 1000 nM.

Take `CCN(C(=O)c1ccncc1)c1cccn2c(=O)c(O)c(C(=O)NCc3ccc(F)cc3)nc12` [Example 15, 9-[ethyl(isonicotinoyl)amino]-N-(4-fluorobenzyl)-3-hydroxy-4-oxo-4H-pyrido[1,2-a]pyrimidine-2-carboxamide]: the IC95 was above 1000 nM.

On to `CCN(C(=O)C(=O)N(C)C)c1cccn2c(=O)c(O)c(C(=O)NCc3ccc(F)cc3)nc12` [Example 12, N-(2-{[(4-fluorobenzyl)amino]carbonyl}-3-hydroxy-4-oxo-4H-pyrido[1,2-a]pyrimidin-9-yl)-N-ethyl-N′,N′-dimethylethanediamide], for which the IC95 is below 1000 nM.

`O=C(NCc1ccc(F)cc1)c1nc2ccc(Br)cn2c(=O)c1O` [Example 35, 7-bromo-N-(4-fluorobenzy1)-3-hydroxy-4-oxo-4H-pyrido[1,2-a]pyrimidine-2-carboxamide] returned an IC95 above 1000 nM.

`O=C(Nc1cccn2c(=O)c(O)c(C(=O)NCc3ccc(F)cc3)nc12)c1ccccc1` [Example 14, 9-[benzoylamino]-N-(4-fluorobenzyl)-3-hydroxy-4-oxo-4H-pyrido[1,2-a]pyrimidine-2-carboxamide] displayed an IC95 above 1000 nM.

Turning to `CCN(C(=O)c1ccno1)c1cccn2c(=O)c(O)c(C(=O)NCc3ccc(F)cc3)nc12` [Example 25, 9-[ethyl(isoxazol-5-ylcarbonyl)amino]-N-(4-fluorobenzyl)-3-hydroxy-4-oxo-4H-pyrido[1,2-a]pyrimidine-2-carboxamide], the IC95 was below 1000 nM.
